Data as given in US6897237B2, “MMP-12 inhibitors” (Shionogi & Co. Ltd., priority 2000, dated 2005).

Key:
MMP-13 catalytic domain = biological target: T1, MMP-13 catalytic domain (Homo sapiens, UniProt P45452); experiment: Assay for inhibitory activities on MMPs (fluorogenic peptide substrate): MMP-13; type: biochemical; conditions: substrate MOCAc-Pro-Leu-Gly-Leu-A2Pr(DNP)-Ala-Arg-NH2
T1 construct: catalytic domain (^104Tyr˜^267Gly); His-tag; enterokinase digestion-site; made in house; host or cells: Escherichia coli
Procedure: In regard to MMP-13, mRNA was prepared from carcinoma cell SW1353 derived from human cartilage stimulate by IL-1, TNF and catalytic domain (^104Tyr˜^267Gly) was amplified with RT-PCR. This was cloned in Escherichia coli expression vector pTrc99AHE inserted with His-tag sequence and enterokinase digestion-site, induced and expressed by IPTG (Isopropyl-β-D-thiogalactopyranoside) and expressed in a insoluble fraction. Isolation of MMP-1.3 from a insoluble fraction was carried out by dissolving in modifier (6M urea) by a usual method and purification with metal chelate chromatography (Ni Chelateing Sepharose). And then removing modifier (6M urea) with dialyze and refolding of the enzyme spontaneously gave activated MMP-13.
(§1) The enzymatic activity on MMPs was analyzed by the method described in “C. Graham Knight, Frances Willenbrock and Gillian Murphy: A novel coumarin-labelled peptide for sensitive continuous assays of the matrix metalloproteinases: FEBS LETT., 296, (1992), 263-266”. The substrate: MOCAc-Pro-Leu-Gly-Leu-A2Pr(DNP)-Ala-Arg-NH2 was purchased from Peptide Institute, Inc., Osaka, Japan. The measurement of the inhibitory activities (IC50) was carried out by the following four methods;
(§2) (A) Reaction with substrate, enzyme (MMPs) and inhibitor
(§3) (B) Reaction with substrate and inhibitor, without enzyme
(§4) (C) Reaction with substrate and enzyme (MMPs), without inhibitor
(§5) (D) Reaction with substrate only
(§6) IC50 values were calculated by using the following formula and each fluorescence values of above four methods (A to D).
(§7) % inhibition={1−(A−B)/(C−D)}×100
(§8) IC50 means the concentration required to inhibit 50% of the enzyme activity.

MMP-9 = biological target: T2, MMP-9 (Homo sapiens, UniProt P14780); experiment: Assay for inhibitory activities on MMPs (fluorogenic peptide substrate): MMP-9; type: biochemical; conditions: substrate MOCAc-Pro-Leu-Gly-Leu-A2Pr(DNP)-Ala-Arg-NH2
T2 construct: endogenous in cells; host or cells: HT1080 human fibrosarcoma cells, TPA-stimulated; purified in house from conditioned medium
T2 sequence (P14780 107-707 limits assumed): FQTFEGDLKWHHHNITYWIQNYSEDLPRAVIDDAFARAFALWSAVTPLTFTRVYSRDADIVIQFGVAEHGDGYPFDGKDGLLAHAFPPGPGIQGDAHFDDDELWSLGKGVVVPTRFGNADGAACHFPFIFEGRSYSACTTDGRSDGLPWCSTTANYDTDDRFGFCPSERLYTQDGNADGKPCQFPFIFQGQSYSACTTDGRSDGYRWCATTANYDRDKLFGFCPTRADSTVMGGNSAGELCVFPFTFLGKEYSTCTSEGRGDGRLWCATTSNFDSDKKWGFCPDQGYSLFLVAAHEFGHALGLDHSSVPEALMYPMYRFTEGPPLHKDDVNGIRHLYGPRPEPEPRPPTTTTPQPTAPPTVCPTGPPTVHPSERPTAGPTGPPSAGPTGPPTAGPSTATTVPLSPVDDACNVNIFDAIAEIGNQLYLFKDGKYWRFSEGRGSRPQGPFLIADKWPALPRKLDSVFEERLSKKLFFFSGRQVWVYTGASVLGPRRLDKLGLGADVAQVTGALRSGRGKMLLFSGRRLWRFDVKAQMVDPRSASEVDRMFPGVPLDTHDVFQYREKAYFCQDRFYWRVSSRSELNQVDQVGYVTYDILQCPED
Description: MMP-9 was isolated and purified by using a combination of procedures described in previous reports as follows. Yasunori Okada, Yukio Gonoji, Katsumi Naka, Katsuro Tomita, Isao Nakanishi, Kazushi Iwata, Kyoko Yamashita, and Taro Hayakawa: Matrix metalloproteinase 9 (92-kDa gelatinase/type IV collagenase) from HT1080 human fibrosarcoma cells. Purification and activation of the precursor and enzymic properties. J. Biol. Chem., 267 (1.992) 21712-21719. Yasunori Okada, Tatsuhisa Morodomi, Jan J, Enghild, Ko Suzuki, Atsushi Yasui, Isao Nakanishi, Guy Salvesen and Hideaki Nagase: Matrix metalloproteinase 2 from human rheumatoid synovial fibroblasts. Purification and activation of the precursor and enzymic properties. Eur. J. Biochem. 194 (1990) 721-730. Robin V Ward, Rosalind M Hembry, John J Reynolds and Gillian Murphy: The purification of tissue inhibitor of metalloproteinase-2 from its 72 kDa progelatinase complex. Biochem. J. 278 (1991) 179-187.
Briefly, human fibrosarcoma ATCC HT1080 cell line was cultured to confluent in Dulbecco's Modified Medium (DMEM) containing 10% fetal-calf serum at 37° C. for 48 hours. Subsequently, the medium of confluent culture was changed to serum-free DMEM medium. To obtain MMP-9, Phorbol-12-myristate-13-acetate (TPA) must be added to this serum-free DMEM medium at a concentration of 50 ng/ml. The TPA treated medium was centrifuged at 3000 rpm for 15 min and the supernatant was concentrated to 450 ml by a Toyo-Roshi UP-20 apparatus with an ultrafiltration membrane. Then, proMMP-9 in this concentrated solution was purified by using columns of Gelatin-Sepharose and Concanavalin A-Sepharose. The pool containing proMMP-9 was dialyzed, concentrated (Toyo-Roshi UP-20) and applied to columns of Sephacryl S-200 and Green A matrix for the separation from TIMPs. The obtained proMMP-9 fraction was activated by TPCK-Trypsin (final conc. […] reaction mix.).
as §1, §2, §3, §4, §5, §6, §7, §8

C[C@@H](NS(=O)(=O)c1ccc(C#Cc2ccc3ccccc3c2)s1)C(=O)O [Compound B-6]
IC50 (MMP-13 catalytic domain): 840 nM
IC50 (MMP-9): 840 nM
